Measurements: ChEMBL document CHEMBL5113519, “Discovery of Novel Imidazo[4,5-c]quinoline Derivatives to Treat Inflammatory Bowel Disease (IBD) by Inhibiting Multiple Proinflammatory Signaling Pathways and Restoring Intestinal Homeostasis” (J Med Chem, 2022)
Calls of active or inactive are those of the source.

Assays:
[1] = tested on: Mus musculus; assay: Anti-inflammatory bowel disease activity in DSS-induced acute enteritis mouse model assessed as reversal of intestinal microbiota at 3 mg/kg; format: functional, organism-based
[2] = tested on: Mus musculus; assay: Antiinflammatory activity in DSS-induced acute colitis C57BL/6 mouse model assessed as reduction in bloody stool by measuring DAI score at 1 to 3 mg/kg, po administered daily and measured upto 11 days; format: functional, organism-based; conditions: dose 1-3 mg/kg, time <= 11.0 day
[3] = tested on: Mus musculus; assay: Antiinflammatory activity in DSS-induced acute colitis C57BL/6 mouse model assessed as reduction in number of goblet cells in colon by measuring histopathological score at 1 to 3 mg/kg, po by H and E staining based analysis; format: functional, organism-based; conditions: dose 1-3 mg/kg
[4] = Toxicity in mouse assessed as abnormality in gastrointestinal tract at 20 to 50 mg/kg, IG measured upto 2 weeks; format: organism-based; conditions: in vivo, po, 336 h, dose 20-50 mg/kg
[5] = Toxicity in mouse assessed as change in body weight at 50 mg/kg measured upto 2 weeks; format: organism-based; conditions: in vivo, 336 h
[6] = Toxicity in mouse assessed as effect on neutrophils number at 20 to 50 mg/kg, IG measured upto 2 weeks; format: organism-based; conditions: in vivo, po, 336 h, dose 20-50 mg/kg
[7] = target: Tyrosine-protein kinase JAK2 (Homo sapiens, UniProt O60674)
Description: Inhibition of JAK2 (unknown origin) using Kinase/Tyr 6 peptide as substrate incubated for 1 hrs in presence of ATP by fluorescence microplate reader analysis

[8] = tested on: THP1-Dual; assay: Inhibition of LPS induced IL-23A expression in human THP1-Dual cells at 1 uM incubated for 6 hrs; format: functional, cell-based
[9] = Toxicity in mouse assessed as effect on red blood cell number at 20 to 50 mg/kg, IG measured upto 2 weeks; format: organism-based; conditions: in vivo, po, 336 h, dose 20-50 mg/kg
[10] = tested on: Mus musculus; assay: Anti-inflammatory bowel disease activity in DSS-induced acute enteritis mouse model assessed as decrese in lactobacillus abundance at 3 mg/kg; format: functional, organism-based
[11] = tested on: THP1-Dual; assay: Downregulation of JAK/STAT in human THP1-Dual cells at 1 uM incubated for 6 hrs; format: functional, cell-based
[12] = tested on: Mus musculus; assay: Antiinflammatory activity in DSS-induced acute colitis C57BL/6 mouse model assessed as reduction in colon villi integrity in colon by measuring histopathological score at 1 to 3 mg/kg, po by H and E staining based analysis; format: functional, organism-based; conditions: dose 1-3 mg/kg
[13] = tested on: THP1-Dual; assay: Anti-inflammatory activity against LPS-stimulated human THP1-Dual cells assessed as reduction in STAT3 phosphorylation level incubated for 6 hrs by Western blot analysis; format: functional, cell-based; conditions: dose 0.33-3 µM, DDE = dose-dependent effect
[14] = tested on: Mus musculus; assay: Antiinflammatory activity in DSS-induced acute colitis C57BL/6 mouse model assessed as reduction in weight loss by measuring DAI score at 1 to 3 mg/kg, po administered daily and measured upto 11 days; format: functional, organism-based; conditions: dose 1-3 mg/kg, time <= 11.0 day
[15] = tested on: Mus musculus; assay: Antiinflammatory activity in DSS-induced acute colitis C57BL/6 mouse model assessed as recovery of colon length at 1 to 3 mg/kg, po administered daily and measured upto 11 days; format: functional, organism-based; conditions: dose 1-3 mg/kg, time <= 11.0 day
[16] = tested on: Mus musculus; assay: Antiinflammatory activity in DSS-induced acute colitis C57BL/6 mouse model assessed as reduction in lamina propria damage in colon by measuring histopathological score at 1 to 3 mg/kg, po by H and E staining based analysis; format: functional, organism-based; conditions: dose 1-3 mg/kg
[17] = Toxicity in mouse assessed as abnormal change in heart at 20 to 50 mg/kg, IG measured upto 2 weeks; format: organism-based; conditions: in vivo, po, 336 h, dose 20-50 mg/kg
[18] = Cytotoxicity against human THP1-Dual cells assessed as inhibition of cell growth measured after 24 hrs by CCK-8 method; format: toxicity, cell-based
[19] = tested on: THP1-Dual; assay: Inhibition of LPS induced IL-1 beta expression in human THP1-Dual cells at 1 uM incubated for 6 hrs; format: functional, cell-based
[20] = tested on: Mus musculus; assay: Antiinflammatory activity in DSS-induced acute enteritis C57BL mouse model assessed as suppression of DSS induced weight loss at 3 mg/kg, po administered daily and measured upto 11 days relative to control; format: functional; conditions: time <= 11 day
[21] = Cytotoxicity against human HUVEC cells assessed as inhibition of cell growth measured after 24 hrs by CCK-8 method; format: toxicity, cell-based
[22] = target: Tyrosine-protein kinase JAK1 (Homo sapiens, UniProt P23458); assay: Inhibition of JAK1 (unknown origin) using Kinase/Tyr 6 peptide as substrate incubated for 1 hrs in presence of ATP by fluorescence microplate reader analysis
[23] = tested on: THP1-Dual; assay: Downregulation of IFN-alpha in human THP1-Dual cells at 1 uM incubated for 6 hrs; format: functional, cell-based
[24] = Toxicity in mouse assessed as abnormal change in spleen at 20 to 50 mg/kg, IG measured upto 2 weeks; format: organism-based; conditions: in vivo, po, 336 h, dose 20-50 mg/kg
[25] = tested on: THP1-Dual; assay: Downregulation of IFN-gamma in human THP1-Dual cells at 1 uM incubated for 6 hrs; format: functional, cell-based
[26] = Toxicity in mouse assessed as behavioral changes at 20 to 50 mg/kg, IG measured upto 2 weeks; format: organism-based; conditions: in vivo, po, 336 h, dose 20-50 mg/kg

Chain of Tyrosine-protein kinase JAK1 (P23458 whole entry): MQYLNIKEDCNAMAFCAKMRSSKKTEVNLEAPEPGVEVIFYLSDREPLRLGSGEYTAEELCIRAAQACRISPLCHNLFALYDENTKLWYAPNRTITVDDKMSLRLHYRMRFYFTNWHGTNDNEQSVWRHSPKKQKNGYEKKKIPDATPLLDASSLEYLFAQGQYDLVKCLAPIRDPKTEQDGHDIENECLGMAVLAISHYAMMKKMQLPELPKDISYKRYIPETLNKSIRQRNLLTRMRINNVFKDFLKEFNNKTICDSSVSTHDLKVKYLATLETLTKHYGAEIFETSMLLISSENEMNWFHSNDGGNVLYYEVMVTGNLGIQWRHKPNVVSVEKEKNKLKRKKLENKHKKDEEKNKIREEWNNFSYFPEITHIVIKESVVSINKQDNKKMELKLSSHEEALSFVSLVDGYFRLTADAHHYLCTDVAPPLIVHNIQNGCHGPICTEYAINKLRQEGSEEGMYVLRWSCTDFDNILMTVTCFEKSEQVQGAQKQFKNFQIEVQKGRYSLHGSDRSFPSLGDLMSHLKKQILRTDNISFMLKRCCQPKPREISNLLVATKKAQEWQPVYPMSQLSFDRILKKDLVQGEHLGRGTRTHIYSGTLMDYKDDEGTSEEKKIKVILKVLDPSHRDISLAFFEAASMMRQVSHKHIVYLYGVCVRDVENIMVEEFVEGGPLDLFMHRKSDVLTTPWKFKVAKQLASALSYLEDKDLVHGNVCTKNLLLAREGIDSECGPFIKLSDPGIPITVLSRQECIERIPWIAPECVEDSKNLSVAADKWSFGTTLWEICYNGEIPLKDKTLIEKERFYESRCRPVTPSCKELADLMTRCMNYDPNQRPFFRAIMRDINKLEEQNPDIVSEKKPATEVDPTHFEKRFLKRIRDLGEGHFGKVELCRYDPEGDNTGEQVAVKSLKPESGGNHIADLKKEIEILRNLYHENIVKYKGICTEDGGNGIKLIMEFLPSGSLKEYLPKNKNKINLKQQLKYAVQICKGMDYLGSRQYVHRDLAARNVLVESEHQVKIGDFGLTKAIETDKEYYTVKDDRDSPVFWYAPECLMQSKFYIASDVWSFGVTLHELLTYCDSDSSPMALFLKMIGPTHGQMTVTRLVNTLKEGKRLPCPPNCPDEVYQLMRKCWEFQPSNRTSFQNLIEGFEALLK
Chain of Tyrosine-protein kinase JAK2 (O60674 whole entry): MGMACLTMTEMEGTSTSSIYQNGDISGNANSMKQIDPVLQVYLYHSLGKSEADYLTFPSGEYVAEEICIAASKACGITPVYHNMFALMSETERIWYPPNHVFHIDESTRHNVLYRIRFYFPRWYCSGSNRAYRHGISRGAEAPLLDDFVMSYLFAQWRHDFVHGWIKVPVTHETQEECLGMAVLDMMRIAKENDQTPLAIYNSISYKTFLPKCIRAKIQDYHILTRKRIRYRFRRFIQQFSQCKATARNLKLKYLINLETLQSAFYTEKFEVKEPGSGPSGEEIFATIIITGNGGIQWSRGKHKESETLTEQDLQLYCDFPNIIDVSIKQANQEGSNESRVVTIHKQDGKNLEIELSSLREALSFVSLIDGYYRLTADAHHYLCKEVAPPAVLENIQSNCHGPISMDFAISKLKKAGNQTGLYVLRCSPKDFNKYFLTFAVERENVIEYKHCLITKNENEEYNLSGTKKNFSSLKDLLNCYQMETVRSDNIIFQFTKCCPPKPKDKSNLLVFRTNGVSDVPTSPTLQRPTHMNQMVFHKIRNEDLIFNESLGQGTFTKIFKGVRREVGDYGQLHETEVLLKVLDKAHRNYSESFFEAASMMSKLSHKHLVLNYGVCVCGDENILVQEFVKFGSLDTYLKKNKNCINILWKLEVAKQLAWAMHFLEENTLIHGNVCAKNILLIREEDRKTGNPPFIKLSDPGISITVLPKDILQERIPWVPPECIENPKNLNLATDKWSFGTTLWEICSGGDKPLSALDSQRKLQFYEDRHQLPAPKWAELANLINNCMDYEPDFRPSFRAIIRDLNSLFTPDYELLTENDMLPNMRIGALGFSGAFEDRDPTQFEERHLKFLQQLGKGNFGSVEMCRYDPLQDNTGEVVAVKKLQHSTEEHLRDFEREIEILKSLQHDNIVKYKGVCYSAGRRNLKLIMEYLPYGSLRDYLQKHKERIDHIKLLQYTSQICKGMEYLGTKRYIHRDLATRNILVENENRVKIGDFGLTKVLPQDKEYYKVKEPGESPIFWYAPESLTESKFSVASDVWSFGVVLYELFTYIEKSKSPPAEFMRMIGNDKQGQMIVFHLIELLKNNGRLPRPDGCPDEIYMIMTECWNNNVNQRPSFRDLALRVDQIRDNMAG

Cc1nc2cnc3ccc(-c4cc(Cl)c(O)c(Cl)c4)cc3c2n1C1CCN(C)CC1
> 10000 nM: IC50 at 24 h [21]
Non-Toxic: Activity [4] | Activity [5] | Activity [6] | Activity [9] | Activity [17] | Activity [24] | Activity [26]
10.81%: Activity [20]
8.9 nM: IC50 [22]
active: Activity [1] | Activity [2] | Activity [3] | inhibition [8] | Activity [10] | Activity [11] | Activity [12] | Activity [13] Dde | Activity [14] | Activity [15] | Activity [16] | inhibition [19] | Activity [23] | Activity [25]
15 nM: IC50 [7]
4300 nM: IC50 at 24 h [18]
